Source: patent US12195413B2, “Ethynyl derivatives” (Hoffmann-La Roche Inc., priority 2015, dated 2025)

Experiment: rat Vogel conflict drinking test
Type: in vivo

**Q.** For `CN1C(=O)N(c2ccc(C#Cc3ccccc3)cn2)[C@@H]2CC[C@@H]21` [Example 1, (−)-(1S,5R)-2-methyl-4-(5-(phenylethynyl)pyridin-2-yl)-2,4-diazabicyclo[3.2.0]heptan-3-one], which “anxiolytic activity, minimal effective dose” value is on record?
**A.** The value was 0.1 mg/kg.
